The source of these data is patent US20180311199A1, “COMBINATION TREATMENT FOR INFLAMMATORY DISEASES” (priority 2016, published 2018).

The subject of assay [1] is pro-inflammatory genes regulated by M5. Briefly: Inflammatory Response and Autoimmune PCR Array on RNA of M5-treated primary human keratinocytes. The format is cell-based. Conditions: diacerein 10 μM, infliximab 5 μg/ml; for number of genes in which the greatest effect was seen: of 48 genes partially or fully reversed by all three groups, keratinocytes + M5, 24 hours; for number of genes on which the effect of the five cytokines was partially or fully reversed: of 81 pro-inflammatory genes significantly (p<0.05) regulated at least 2-fold by M5, keratinocytes, 24 hours. Here is the method:
(§1) Experiments were carried out to investigate the effect of combined anti-TNF-α (infliximab) and diacerein, an inhibitor for a pro-inflammatory cytokine interleukin-1, utilizing an in vivo-equivalent psoriasis cell culture system. This in vivo-equivalent model is generated by using a group of 5 different natural chemicals (M5: IL-17A, IL-22, Oncostatin-M, IL-1α, and TNF-α) on human epidermal cells keratinocytes, recapitulating the in vivo immune dysregulation as identified in vivo in the skin lesions of patients affected by psoriasis (Guilloteau et al., Skin Inflammation Induced by the Synergistic Action of IL-17A, IL-22, Oncostatin M, IL-1α, and TNF-α Recapitulates Some Features of Psoriasis. Journal of Immunology 2010; 184:5263-70). Thus, this in vivo-equivalent model provides an excellent tool for the investigation of the combined effect of anti-TNF-α and diacerein on psoriasis.
The experiments were carried out in the following manner: Primary human keratinocytes (purchased from Invitrogen, Carlsbad, Calif.) Epilife culture medium supplemented with human keratinocyte growth supplement (Invitrogen) in standard humidified chamber (37° C., 5% CO2). When the cells reached 80% confluency, cells were divided into 5 groups for treatment: • 1). Cell culture medium alone, serving as a negative control • 2). Cell culture medium plus 5 natural chemicals (M5) • 3). Cell culture medium plus 5 natural chemicals (M5) and anti-TNF-alpha (infliximab) • 4). Cell culture medium plus 5 natural chemicals (M5) and diacerein • 5). Cell culture medium plus 5 natural chemicals (M5), anti-TNF-alpha (infliximab) and diacerein.
The above 5 groups were incubated at 37° C. for 24 hours.
The concentrations and commercial sources of the experiment components are: • IL-17 alpha (10 ng/ml, Life Technologies, Frederick, Md.) • IL-22 (10 ng/ml. Life Technologies, Frederick, Md.) • Oncostatin-M (10 ng/ml, Life Technologies, Frederick, Md.) • IL-1 alpha (10 ng/ml, Life Technologies, Frederick, Md.) • TNF-alpha ([…], Life Technologies, Frederick, Md.) • Diacerein (10 μM, Sigma Aldrich, Saint Louis, Md.) • Infliximab (Remicade®, an anti-TNF-alpha, 5 μg/ml, Jansen Biotech, Horsham, Pa.)
After 24 hours of incubation, the cultured cells were washed three times with sterile PBS (phosphate-buffered saline) and the RNAs were harvested with Trizol (Invitrogen) and the purity (A260/A280 ratio>1.8) was confirmed. Reverse transcription was performed with 1 micro gram RNA using first strand kit from Invitrogen according to manufacturer's instruction. 10 μl of mastermix (Qiagen, Valencia, Calif.) with the reversely transcribed cDNA were amplified using a real-time PCR machine (ViiA7 PCR, Applied Biosystems, Waltham, Pa.). Statistical analysis was performed with web-based Software. […]

In assay [2] the test system is IL-6, IL-19, G-CSF, S100AB, and NAP-2. Nature of the assay: ELISA of cytokine proteins in culture supernatant of M5-treated primary human keratinocytes (psoriasis cell culture model). It counts as cell-based. Conditions: of five gene products (IL-6, IL-19, G-CSF, S100AB, NAP-2), primary human keratinocytes + M5, 24 hours, diacerein 10 μM, infliximab 5 μg/ml. Here is the method:
as §1, with “Thus, this in vivo-equivalent model provides an excellent tool for the investigation of the combined effect of anti-TNF-α and diacerein on psoriasis.” left out
After 24 hours of incubation, the culture media (supernatant) of the above 5 groups were collected and stored at −20° C. for ELISA experiments as the following: 50-100 μl of cell culture supernatant were assayed with commercially available ELISA kits for human cytokines according to the manufacturers' instructions (IL-6, IL-19, G-CSF, S100AB, and NAP-2). The data we collected determined that infliximab alone (group 3), diacerein alone (group 4), and combined infliximab and diacerein (group 5) partially or completely reverse the dysregulation effect of the 5 natural chemicals (M5) in five, three, and five genes, respectively. […]

With `CC(=O)Oc1cccc2c1C(=O)c1c(OC(C)=O)cc(C(=O)O)cc1C2=O` [diacerein], in assay [1], the “number of genes in which the greatest effect was seen” value was determined as 17 genes and the “number of genes on which the effect of the five cytokines was partially or fully reversed” value was found to be 61 genes. Further, the “number of genes in which the dysregulation effect of the 5 natural chemicals (M5) is partially or completely reversed” value in assay [2] was “three”.
As to infliximab, in assay [1], the “number of genes in which the greatest effect was seen” value is given as 10 genes and the “number of genes on which the effect of the five cytokines was partially or fully reversed” value is 67 genes. Also, the “number of genes in which the dysregulation effect of the 5 natural chemicals (M5) is partially or completely reversed” value in assay [2] was “five”.
